Measurements taken from PMC6001238, “Iterative Chemical Engineering of Vancomycin Leads to Novel Vancomycin Analogs With a High in Vitro Therapeutic Index” (Frontiers in Microbiology, 2018).
≈ marks a conversion by molar mass, not a printed value.

Experiments:
S. aureus VISA/HIP5827 = test: MIC, broth microdilution, vancomycin-intermediate S. aureus VISA HIP5827; format: cell-based, Staphylococcus aureus; settings: for MIC: Staphylococcus aureus VISA/HIP5827, read-out: MIC; for MIC-fold improvement vs. vancomycin: VISA/HIP5827, ratio of MIC of vancomycin and MIC of analogue
Method in brief: (§1)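 Inhibitory concentrations were read by the CLSI broth microdilution procedure, with water and sterile broth as controls. One experiment added vancomycin (10 μM final) together with each analogue or reference antibiotic.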

MRSA KS6 = test: MIC, broth microdilution, MRSA KS6; format: cell-based, Staphylococcus aureus; settings: for MIC-fold improvement vs. vancomycin: MRSA KS6, ratio of MIC of vancomycin and MIC of analogue; for MIC: Staphylococcus aureus MRSA KS6, read-out: MIC
Method in brief: as §1

E. faecalis VRE 6 = test: MIC, broth microdilution, vancomycin-resistant E. faecalis VRE 6 (VanA); format: cell-based, Enterococcus faecalis; settings: for MIC: Enterococcus faecalis VRE 6 (vancomycin-resistant), read-out: MIC; for MIC-fold improvement vs. vancomycin: VRE 6, ratio of MIC of vancomycin and MIC of analogue
Method in brief: as §1

E. faecalis VRE 53 = test: MIC, broth microdilution, vancomycin-resistant E. faecalis VRE 53 (VanA); format: cell-based, Enterococcus faecalis; settings: for MIC: Enterococcus faecalis VRE 53 (vancomycin-resistant), read-out: MIC; for MIC-fold improvement vs. vancomycin: VRE 53, ratio of MIC of vancomycin and MIC of analogue
Method in brief: as §1

MRSA KS1 = test: MIC, broth microdilution, MRSA KS1; format: cell-based, Staphylococcus aureus; settings: for MIC-fold improvement vs. vancomycin: MRSA KS1, ratio of MIC of vancomycin and MIC of analogue; for MIC: Staphylococcus aureus MRSA KS1, read-out: MIC
Method in brief: as §1

[1] = system: Murine leukemia (L1210) cells; test: Cytostatic activity, L1210 cell proliferation; format: cell-based; settings: mean ± SD of three experiments; highest concentration tested 250 µM; 2 days; read-out: Toxicity (IC50) L1210
Method in brief: (§2)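 Test compounds, serially diluted, received an equal volume of cell suspension at 300,000–500,000 cells/mL. After 37°C incubation (2 days for L1210, 3 for CEM, 4 for HeLa), cells were enumerated by Coulter counting and 50%-inhibitory concentrations calculated per cell type.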

[2] = system: human cervix carcinoma (HeLa) cells; test: Cytostatic activity, HeLa cell proliferation; format: cell-based; settings: mean ± SD of three experiments; highest concentration tested 250 µM; 4 days; read-out: Toxicity (IC50) HeLa
Method in brief: as §2

MRSA KS2 = test: MIC, broth microdilution, MRSA KS2; format: cell-based, Staphylococcus aureus; settings: for MIC-fold improvement vs. vancomycin: MRSA KS2, ratio of MIC of vancomycin and MIC of analogue; for MIC: Staphylococcus aureus MRSA KS2, read-out: MIC
Method in brief: as §1

E. faecalis VSE 1 = test: MIC, broth microdilution, vancomycin-sensitive E. faecalis (VSE 1); format: cell-based, Enterococcus faecalis; settings: for MIC: Enterococcus faecalis VSE 1 (vancomycin-sensitive), read-out: MIC; for MIC-fold improvement vs. vancomycin: VSE 1, ratio of MIC of vancomycin and MIC of analogue
Method in brief: as §1

[3] = system: L1210, CEM and HeLa cell lines; test: Cytostatic activity, average or summary over L1210, CEM and HeLa; format: cell-based; settings: average of L1210, CEM and HeLa; read-out: Toxicity (IC50) Average
Method in brief: as §2

E. faecalis VRE 37 = test: MIC, broth microdilution, vancomycin-resistant E. faecalis VRE 37 (VanA); format: cell-based, Enterococcus faecalis; settings: for MIC: Enterococcus faecalis VRE 37 (vancomycin-resistant), read-out: MIC; for MIC-fold improvement vs. vancomycin: VRE 37, ratio of MIC of vancomycin and MIC of analogue
Method in brief: as §1

[4] = system: S. aureus VSSA (ATCC 6538); test: MIC, broth microdilution, vancomycin-sensitive S. aureus (VSSA/MSSA, ATCC 6538); format: cell-based, Staphylococcus aureus; settings: for MIC: Staphylococcus aureus VSSA, read-out: MIC; for MIC-fold improvement vs. vancomycin: VSSA, ratio of MIC of vancomycin and MIC of analogue
Method in brief: as §1

MRSA KS89 = test: MIC, broth microdilution, MRSA KS89; format: cell-based, Staphylococcus aureus; settings: for MIC-fold improvement vs. vancomycin: MRSA KS8, ratio of MIC of vancomycin and MIC of analogue; for MIC: Staphylococcus aureus MRSA KS8, read-out: MIC
Method in brief: as §1

S. aureus VRSA = test: MIC, broth microdilution, vancomycin-resistant S. aureus (VRSA); format: cell-based, Staphylococcus aureus; settings: for MIC: Staphylococcus aureus VRSA, read-out: MIC; for MIC-fold improvement vs. vancomycin: VRSA, ratio of MIC of vancomycin and MIC of analogue
Method in brief: as §1

E. faecalis VRE 29 = test: MIC, broth microdilution, vancomycin-resistant E. faecalis VRE 29 (VanA); format: cell-based, Enterococcus faecalis; settings: for MIC: Enterococcus faecalis VRE 29 (vancomycin-resistant), read-out: MIC; for MIC-fold improvement vs. vancomycin: VRE 29, ratio of MIC of vancomycin and MIC of analogue
Method in brief: as §1

[5] = system: human T-lymphocyte (CEM) cells; test: Cytostatic activity, CEM cell proliferation; format: cell-based; settings: mean ± SD of three experiments; highest concentration tested 250 µM; 3 days; read-out: Toxicity (IC50) CEM
Method in brief: as §2

**Q.** What does the source list for `CNC(CC(C)C)C(=O)NC1C(=O)NC(CC(N)=O)C(=O)NC2C(=O)NC3C(=O)NC(C(=O)NC(C(=O)NCC(=O)Nc4ccc(-c5cn(-c6ccc(OC)cc6)nn5)cc4)c4cc(O)cc(O)c4-c4cc3ccc4O)C(O)c3ccc(c(Cl)c3)Oc3cc2cc(c3OC2OC(CO)C(O)C(O)C2OC2CC(C)(N)C(O)C(C)O2)Oc2ccc(cc2Cl)C1O` (centres unmarked) [Vanc-72]?
**A.** MIC (S. aureus VISA/HIP5827): 0.78 µM (≈ 1.37 µg/mL); MIC-fold improvement vs. vancomycin (S. aureus VISA/HIP5827): 8; MIC-fold improvement vs. vancomycin (MRSA KS6): 4; MIC (MRSA KS6): 0.20 µM (≈ 0.351 µg/mL); MIC (E. faecalis VRE 6): 3.13 µM (≈ 5.49 µg/mL); MIC-fold improvement vs. vancomycin (E. faecalis VRE 6): 64; MIC (E. faecalis VRE 53): 6.25 µM (≈ 11 µg/mL); MIC-fold improvement vs. vancomycin (E. faecalis VRE 53): 64; MIC-fold improvement vs. vancomycin (MRSA KS1): 0.5; MIC (MRSA KS1): 1.56 µM (≈ 2.74 µg/mL); IC50 [1]: 173 ± 106 µM; IC50 [2]: 25 ± 10 µM; MIC-fold improvement vs. vancomycin (MRSA KS2): 4; MIC (MRSA KS2): 0.20 µM (≈ 0.351 µg/mL); MIC (E. faecalis VSE 1): 0.78 µM (≈ 1.37 µg/mL); MIC-fold improvement vs. vancomycin (E. faecalis VSE 1): 2; IC50 [3]: 72 µM; MIC (E. faecalis VRE 37): 6.25 µM (≈ 11 µg/mL); MIC-fold improvement vs. vancomycin (E. faecalis VRE 37): 64; MIC [4]: 0.39 µM (≈ 0.684 µg/mL); MIC-fold improvement vs. vancomycin [4]: 2; MIC-fold improvement vs. vancomycin (MRSA KS89): 4; MIC (MRSA KS89): 0.20 µM (≈ 0.351 µg/mL); MIC (S. aureus VRSA): 0.78 µM (≈ 1.37 µg/mL); MIC-fold improvement vs. vancomycin (S. aureus VRSA): 128; MIC (E. faecalis VRE 29): 6.25 µM (≈ 11 µg/mL); MIC-fold improvement vs. vancomycin (E. faecalis VRE 29): 64; IC50 [5]: 17 ± 1 µM

**Q.** Which results are given for `CN[C@H](CC(C)C)C(=O)N[C@H]1C(=O)N[C@@H](CC(N)=O)C(=O)N[C@H]2C(=O)N[C@H]3C(=O)N[C@H](C(=O)N[C@H](C(=O)NCCNC(=O)CC(c4ccccc4)c4ccccc4)c4cc(O)cc(O)c4-c4cc3ccc4O)[C@H](O)c3ccc(c(Cl)c3)Oc3cc2cc(c3O[C@@H]2O[C@H](CO)[C@@H](O)[C@H](O)[C@H]2O[C@H]2C[C@](C)(N)[C@H](O)[C@H](C)O2)Oc2ccc(cc2Cl)[C@H]1O` [Vanc-47]?
**A.** MIC (S. aureus VISA/HIP5827): 1.56 µM (≈ 2.65 µg/mL); MIC-fold improvement vs. vancomycin (S. aureus VISA/HIP5827): 4; MIC-fold improvement vs. vancomycin (MRSA KS6): 0.25; MIC (MRSA KS6): 3.13 µM (≈ 5.32 µg/mL); MIC (E. faecalis VRE 6): 6.25 µM (≈ 10.6 µg/mL); MIC-fold improvement vs. vancomycin (E. faecalis VRE 6): 32; MIC (E. faecalis VRE 53): 50 µM (≈ 85 µg/mL); MIC-fold improvement vs. vancomycin (E. faecalis VRE 53): 8; MIC-fold improvement vs. vancomycin (MRSA KS1): 2; MIC (MRSA KS1): 0.39 µM (≈ 0.663 µg/mL); IC50 [1]: ≥ 250 µM; IC50 [2]: 106 ± 14 µM; MIC-fold improvement vs. vancomycin (MRSA KS2): 2; MIC (MRSA KS2): 0.39 µM (≈ 0.663 µg/mL); MIC (E. faecalis VSE 1): 0.78 µM (≈ 1.33 µg/mL); MIC-fold improvement vs. vancomycin (E. faecalis VSE 1): 2; IC50 [3]: 199 µM; MIC (E. faecalis VRE 37): 25 µM (≈ 42.5 µg/mL); MIC-fold improvement vs. vancomycin (E. faecalis VRE 37): 16; MIC [4]: 0.78 µM (≈ 1.33 µg/mL); MIC-fold improvement vs. vancomycin [4]: 1; MIC-fold improvement vs. vancomycin (MRSA KS89): 2; MIC (MRSA KS89): 0.39 µM (≈ 0.663 µg/mL); MIC (S. aureus VRSA): 3.13 µM (≈ 5.32 µg/mL); MIC-fold improvement vs. vancomycin (S. aureus VRSA): 32; MIC (E. faecalis VRE 29): 25 µM (≈ 42.5 µg/mL); MIC-fold improvement vs. vancomycin (E. faecalis VRE 29): 16; IC50 [5]: 240 ± 4 µM

**Q.** `CNC(CC(C)C)C(=O)NC1C(=O)NC(CC(N)=O)C(=O)NC2C(=O)NC3C(=O)NC(C(=O)NC(C(=O)NCC(=O)Nc4ccc(C=Cc5ccc(N)cc5)cc4)c4cc(O)cc(O)c4-c4cc3ccc4O)C(O)c3ccc(c(Cl)c3)Oc3cc2cc(c3OC2OC(CO)C(O)C(O)C2OC2CC(C)(N)C(O)C(C)O2)Oc2ccc(cc2Cl)C1O` (centres unmarked) [Vanc-58] was tested. Which MIC (S. aureus VISA/HIP5827) did it give?
**A.** 1.56 µM (≈ 2.65 µg/mL)

**Q.** And the “MIC-fold improvement vs. vancomycin” value (S. aureus VISA/HIP5827)?
**A.** 4

**Q.** And the “MIC-fold improvement vs. vancomycin” value (MRSA KS6)?
**A.** 1

**Q.** And the MIC (MRSA KS6)?
**A.** 0.78 µM (≈ 1.32 µg/mL)

**Q.** What about the MIC (E. faecalis VRE 6) of the same compound?
**A.** 6.25 µM (≈ 10.6 µg/mL)

**Q.** And the “MIC-fold improvement vs. vancomycin” value (E. faecalis VRE 6)?
**A.** 32

**Q.** And the MIC (E. faecalis VRE 53)?
**A.** 25 µM (≈ 42.5 µg/mL)

**Q.** What about the “MIC-fold improvement vs. vancomycin” value (E. faecalis VRE 53) of the same compound?
**A.** 16

**Q.** And the “MIC-fold improvement vs. vancomycin” value (MRSA KS1)?
**A.** 0.5

**Q.** What about the MIC (MRSA KS1) of the same compound?
**A.** 1.56 µM (≈ 2.65 µg/mL)

**Q.** And the IC50 [1]?
**A.** > 250 µM

**Q.** What about the IC50 [2] of the same compound?
**A.** 125 ± 57 µM

**Q.** What about the “MIC-fold improvement vs. vancomycin” value (MRSA KS2) of the same compound?
**A.** 1

**Q.** And the MIC (MRSA KS2)?
**A.** 0.78 µM (≈ 1.32 µg/mL)

**Q.** What about the MIC (E. faecalis VSE 1) of the same compound?
**A.** 0.78 µM (≈ 1.32 µg/mL)

**Q.** And the “MIC-fold improvement vs. vancomycin” value (E. faecalis VSE 1)?
**A.** 2

**Q.** And the IC50 [3]?
**A.** 191 µM

**Q.** What about the MIC (E. faecalis VRE 37) of the same compound?
**A.** 12.5 µM (≈ 21.2 µg/mL)

**Q.** And the MIC [4]?
**A.** 0.78 µM (≈ 1.32 µg/mL)

**Q.** And the “MIC-fold improvement vs. vancomycin” value [4]?
**A.** 1

**Q.** And the “MIC-fold improvement vs. vancomycin” value (MRSA KS89)?
**A.** 1

**Q.** And the MIC (MRSA KS89)?
**A.** 0.78 µM (≈ 1.32 µg/mL)

**Q.** And the MIC (S. aureus VRSA)?
**A.** 0.78 µM (≈ 1.32 µg/mL)

**Q.** And the “MIC-fold improvement vs. vancomycin” value (S. aureus VRSA)?
**A.** 128

**Q.** What about the MIC (E. faecalis VRE 29) of the same compound?
**A.** 12.5 µM (≈ 21.2 µg/mL)

**Q.** What about the “MIC-fold improvement vs. vancomycin” value (E. faecalis VRE 29) of the same compound?
**A.** 32

**Q.** What about the IC50 [5] of the same compound?
**A.** 197 ± 75 µM
